Here are results for seven compounds from patent US20250154686A1, “COMPOUND LIBRARY” (CHUGAI SEIYAKU KABUSHIKI KAISHA, priority 2021, published 2025).

One test concerns the target T1, Human Bcl-2 protein (Homo sapiens, UniProt P10415).
T1 construct: purchased Novus Biologicals
Description: Evaluation of binding of compound to Bcl-2 by surface plasmon resonance (SPR)-2, Example 13. To be noted: for equilibrium dissociation constant KD compared with B2Q045-01 (KD=1.20 μM) or B2Q048-01 (KD=0.480 μM): Biacore T200, 15° C.; for Kd: Biacore T200, biotinylated Bcl-2 immobilized on Sensor Chip SA, 15° C., read-out: Equilibrium dissociation constant KD. The method, then:
A surface plasmon resonance method was used in order to analyze the binding affinity of the compounds synthesized in Example 12 for Bcl-2, which are shown in Table 13-1. The apparatus used was Biacore T200 (GE Healthcare Japan Corp.), and the running buffer used was HBS (10 mM HEPES-NaOH and 150 mM NaCl, pH 7.4) supplemented with 1 mM DTT, 3 mM EDTA, 0.01% Tween 20 and 4% DMSO. Human Bcl-2 protein (Novus Biologicals) was biotinylated using EZ-Link NHS-PEG4-Biotin (Thermo Fisher scientific Inc.) and immobilized on the surface of Sensor Chip SA (Cytiva). Then, compound solutions having a plurality of concentrations and the running buffer (blank) were added to the Bcl-2-immobilized surface to obtain the binding response of the compounds. Measurement was performed at 15° C.
The obtained sensorgrams were treated with Biacore T200 Evaluation Software, and the equilibrium dissociation constant KD of each compound for Bcl-2 was determined as shown in the following Table 13-2.
A general note: In SPR one partner is held on a chip, and binding of the other changes the refractive index at the surface.

Test [1] deals with T2, Bcl-2 protein (Recombinant Human Bcl-2 Protein) (Homo sapiens, UniProt P10415).
T2 construct: purchased Novus Biologicals NBP2-34889
T2 sequence (P10415 whole entry): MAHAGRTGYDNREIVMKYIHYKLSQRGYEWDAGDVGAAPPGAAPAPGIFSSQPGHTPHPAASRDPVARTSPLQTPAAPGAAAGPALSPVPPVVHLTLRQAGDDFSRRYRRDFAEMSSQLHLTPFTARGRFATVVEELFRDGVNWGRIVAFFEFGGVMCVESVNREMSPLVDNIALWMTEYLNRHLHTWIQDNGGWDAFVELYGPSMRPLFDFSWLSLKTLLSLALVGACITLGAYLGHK
Description: AS-MS evaluation of binding of the mixture libraries of Examples 8 and 9 to Bcl-2, ASMS ratio (%), Example 11. To be noted: ASMS ratio, mixtures obtained from Example 9, 10 uM Bcl-2 protein; for AS-MS(%) N1: replicate N1; for AS-MS(%) N2: replicate N2; for AS-MS(%) N3: replicate N3 (additional day); for AS-MS(%) N4: replicate N4 (additional day). The protocol:
DMSO solutions (prepared into approximately 5 mM based on calculation from the average molecular weight of each mixture) of the mixtures of each Example shown in Table 11-1-1 were respectively dispensed to 8 wells of MICROPLATE, 96-WELL, PP, V-BOTTOM (Greiner Bio-One International GmbH, 651201). 400 nL each from the 8 wells of the mixtures obtained from Example 8 was dispensed into 3 designated wells while 200 nL each from the 8 wells of the mixtures obtained from Example 9 was dispensed into 3 designated wells, using LABCYTE ECHO® 555 acoustic dispensing system (Beckman Coulter, Inc.). 200 nL each of two types of 10 μM positive controls (B2Q045-01 and B2Q048-01) was dispensed to the mixtures obtained from Example 8. Likewise, 100 nL each of two types of 20 μM positive controls and 400 nL of a DMSO solution by backfill was dispensed to the mixtures obtained from Example 9. Further, Bcl-2 protein (Novus Biologicals, NBP2-34889, Recombinant Human Bcl-2 Protein, Lot E60145051) (19.2 μL) prepared at 5 µM (final protein concentration) for the mixtures obtained from Example 8 and 10 µM (final protein concentration) for the mixtures obtained from Example 9, in advance using a Tris-HCl buffer (25 mM Tris-HCl, pH 7.4, 150 mM NaCl, 0.025% Tween-20, and 1 mM DTT) was added to the well containing the dispensed 1000 compounds or 500 compounds (final compound concentration: 100 nM), and the plate was incubated at 23° C. for 1 hour in the dark. Subsequently, 200 μL of an assay buffer (25 mM Tris-HCl, pH 7.4, 150 mM NaCl, 0.025% Tween-20, and 1 mM DTT) was centrifuged three times at 2000×G at 4° C. for 2 minutes using 96-well MacroSpin column, P-2 Material (Harvard Bioscience, Inc., 74-5655) that had been allowed to swell to condition the 96-well MacroSpin column. Subsequently, 20 μL of the sample thus incubated was added to the 96-well MacroSpin column, P-2 Material after the completion of conditioning, and SEC treatment was performed by centrifugation at 2000×G for 2 minutes. 32 μL of a 1:1 mixed solution of acetonitrile and methanol (LC/MS grade, FUJIFILM Wako Pure Chemical Corp.) was added to a flow-through liquid from SEC, and the mixture was centrifuged at 1800×G at 4° C. for 5 minutes. The supernatant was used as analysis sample ASMS (A). By a similar operation, a sample prepared at 500 compounds/well or 1000 compounds/well and supplemented with only a Tris-HCl buffer containing no Bcl-2 protein was incubated under the same conditions as above, and the same organic solvent as above was added thereto without 96-well MacroSpin column treatment. A supernatant obtained by a centrifugation operation was used as STD (B). Next, by a similar operation, a sample prepared at 1000 compounds/well or 500 compounds/well and supplemented with only a Tris-HCl buffer containing no Bcl-2 protein was incubated under the same conditions as above and treated with 96-well MacroSpin column in the same manner as above, and the same organic solvent as above was added thereto. A supernatant obtained by a centrifugation operation was used as BK (C). These samples were measured by reverse-phase LC/MS.
Then, the samples A, B and C were analyzed for the 1000 compounds or 500 compounds using TraceFinder 5.1 (Thermo Fisher Scientific Inc.) and CHANCE Software (in-house), and an ASMS ratio (%) was calculated according to the following expression.
The mixtures obtained from Example 8 were tested at the number of data of 2 (N1 and N2) in order to ensure reproducibility. The mixtures obtained from Example 9 were tested at the total number of data 4 (N1,N2, N3, and N4) involving the number of data of 2/day (N1 and N2) and data obtained on additional days.

T1 sequence (P10415 whole entry): as above

Regarding `CC(C(=O)Nc1nc2ccccc2s1)c1cc(O)cc(N2CCN(c3ccc(C(=O)NS(=O)(=O)c4ccc(N[C@H](CCN5CCOCC5)CSc5ccccc5)c([N+](=O)[O-])c4)cc3)CC2)c1` (stereo partly drawn) [2-2-d1E04-1-0495], on Human Bcl-2 protein, the “equilibrium dissociation constant KD compared with B2Q045-01 (KD=1.20 μM) or B2Q048-01 (KD=0.480 μM)” value is recorded as “smaller equilibrium dissociation constant KD” and the Kd was 0.162 µM. For the same compound, in test [1], the “AS-MS(%) N1” value amounted to 59.4%, the “AS-MS(%) N2” value came to 93.2%, the “AS-MS(%) N3” value turned out to be 85.8% and the “AS-MS(%) N4” value was determined as 69.0%.
On to `CC(C(=O)Nc1ccc(C(F)(F)F)cc1)c1cc(O)cc(N2CCN(c3ccc(C(=O)NS(=O)(=O)c4ccc(N[C@H](CCN5CCOCC5)CSc5ccccc5)c([N+](=O)[O-])c4)cc3)CC2)c1` (stereo partly drawn) [2-2-d1E04-1-0498], for which the Kd at Human Bcl-2 protein stood at 2.51 µM. Moreover, in test [1], the “AS-MS(%) N1” value amounted to 45.5%, the “AS-MS(%) N2” value was found to be 61.4%, the “AS-MS(%) N3” value turned out to be 52.7% and the “AS-MS(%) N4” value stood at 51.0%.
For `CCOc1cc(C(C)C(=O)Nc2ccccc2)cc(N2CCN(c3ccc(C(=O)NS(=O)(=O)c4ccc(N[C@H](CCN5CCOCC5)CSc5ccccc5)c([N+](=O)[O-])c4)cc3)CC2)c1` (stereo partly drawn) [2-2-d1E04-2-0417], on Human Bcl-2 protein, the “equilibrium dissociation constant KD compared with B2Q045-01 (KD=1.20 μM) or B2Q048-01 (KD=0.480 μM)” value is reported as “smaller equilibrium dissociation constant KD” and the Kd was found to be 0.846 µM. Moreover, in test [1], the “AS-MS(%) N1” value is listed as 43.8%, the “AS-MS(%) N2” value was 48.8%, the “AS-MS(%) N3” value is 53.8% and the “AS-MS(%) N4” value was 65.5%.
For the compound `CCOc1cc(C(C)C(=O)Nc2ccc(C)cc2)cc(N2CCN(c3ccc(C(=O)NS(=O)(=O)c4ccc(N[C@H](CCN5CCOCC5)CSc5ccccc5)c([N+](=O)[O-])c4)cc3)CC2)c1` (stereo partly drawn) [2-2-d1E04-2-0446], the Kd on Human Bcl-2 protein stood at 1.33 µM. Also, in test [1], the “AS-MS(%) N1” value was 62.1%, the “AS-MS(%) N2” value turned out to be 45.0%, the “AS-MS(%) N3” value amounted to 44.0% and the “AS-MS(%) N4” value was 46.2%.
As to `CCOc1cc(C(C)C(=O)Nc2ccc(F)cc2)cc(N2CCN(c3ccc(C(=O)NS(=O)(=O)c4ccc(N[C@H](CCN5CCOCC5)CSc5ccccc5)c([N+](=O)[O-])c4)cc3)CC2)c1` (stereo partly drawn) [2-2-d1E04-2-0454], on Human Bcl-2 protein, the “equilibrium dissociation constant KD compared with B2Q045-01 (KD=1.20 μM) or B2Q048-01 (KD=0.480 μM)” value was “smaller equilibrium dissociation constant KD” and the dissociation constant Kd came to 1.06 µM. Also, in test [1], the “AS-MS(%) N1” value is 36.4%, the “AS-MS(%) N2” value is listed as 42.2%, the “AS-MS(%) N3” value stood at 58.2% and the “AS-MS(%) N4” value was determined as 62.7%.
Turning to `CCOc1cc(N2CCN(c3ccc(C(=O)NS(=O)(=O)c4ccc(N[C@H](CCN5CCOCC5)CSc5ccccc5)c([N+](=O)[O-])c4)cc3)CC2)cc2c1CCCC2C(=O)Nc1ccccc1` (stereo partly drawn) [2-2-d1E04-2-0466], on Human Bcl-2 protein, the Kd came out at 2.45 µM. In test [1], the “AS-MS(%) N1” value worked out at 53.4%, the “AS-MS(%) N2” value is 45.9%, the “AS-MS(%) N3” value is recorded as 33.3% and the “AS-MS(%) N4” value is given as 36.8%.
Regarding `CCOc1cc(C(C)C(=O)Nc2nc3ccccc3s2)cc(N2CCN(c3ccc(C(=O)NS(=O)(=O)c4ccc(N[C@H](CCN5CCOCC5)CSc5ccccc5)c([N+](=O)[O-])c4)cc3)CC2)c1` (stereo partly drawn) [2-2-d1E04-2-0495], at Human Bcl-2 protein, the “equilibrium dissociation constant KD compared with B2Q045-01 (KD=1.20 μM) or B2Q048-01 (KD=0.480 μM)” value was “smaller equilibrium dissociation constant KD” and the Kd worked out at 0.706 µM. In addition, in test [1], the “AS-MS(%) N1” value is 52.7%, the “AS-MS(%) N2” value amounted to 137.5%, the “AS-MS(%) N3” value is reported as 56.0% and the “AS-MS(%) N4” value is recorded as 50.3%.

By Kd is commonly meant the constant that tells how readily two partners part at equilibrium.
